In patent US10966426B2, “Herbicidal compositions comprising phenylpyrimidines” (BASF SE, priority 2016, dated 2021):

Columns and labels:
Assay type in all cases: in vivo
[1] = system: Poa annua; experiment: greenhouse post-emergence treatment, POAAN; settings: Poa annua, 480 h, read-out: % activity
Protocol: (§1) The culture containers used were plastic pots containing loamy sand with approximately 3.0% of humus as substrate. The seeds of the test plants were sown separately for each species.
(§2) For the post-emergence treatment, the test plants were grown to a plant height of from 3 to 15 cm, depending on the plant habit, and only then treated with the active compounds which had been suspended or emulsified in water. To this end, the test plants were either sown directly, and grown in the same containers, or they were first grown separately as seedlings and transplanted into the test containers a few days prior to treatment.
(§3) Depending on the species, the plants were kept at 10-25° C. and 20-35° C., respectively.
(§4) The test period extended over 2 to 4 weeks. During this time, the plants were tended and their response to the individual treatments was evaluated.
(§5) Evaluation was carried out using a scale from 0 to 100. 100 means no emergence of the plants, or complete destruction of at least the above-ground parts, and 0 means no damage or normal course of growth. A good herbicidal activity is given at values of at least 70, and very good herbicidal activity is given at values of at least 85.
(§6) The respective stated components A and B, and if appropriate, C were formulated as a 10% by weight strength emulsion concentrate and, with addition of the amount of solvent system, introduced into the spray liquor used for applying the active compound. In the examples, the solvent used was water.
(§7) In the examples below, using the method of S. R. Colby (1967) “Calculating synergistic and antagonistic responses of herbicide combinations”, Weeds 15, p. 22ff., the value E, which is expected if the activity of the individual active compounds is only additive, was calculated. E=X+Y−(X·Y/100) where X=effect in percent using herbicide A at an application rate a; • Y=effect in percent using herbicide B at application rate b; • E=expected effect (in %) of herbicide A+herbicide B at application rates a+b.

[2] = system: Alopecurus myosuroides; experiment: greenhouse post-emergence treatment, ALOMY; settings: Alopecurus myosuroides, 480 h, read-out: % activity
Protocol: as §1
To this end, the test plants were either sown directly, and grown in the same containers, or they were first grown separately as seedlings and transplanted into the test containers a few days prior to treatment.
as §3, §4, §5
In the examples, the solvent used was water.
In the examples below, using the method of S. R. Colby (1967) “Calculating synergistic and antagonistic responses of herbicide combinations”, Weeds 15, p. […] E=X+Y−(X·Y/100) where X=effect in percent using herbicide A at an application rate a; • Y=effect in percent using herbicide B at application rate b; • E=expected effect (in %) of herbicide A+herbicide B at application rates a+b.

[3] = system: Papaver rhoeas; experiment: greenhouse post-emergence treatment, PAPRH; settings: Papaver rhoeas, 480 h, 31.25 gai/ha (EC 235 g/l), 20 DAT, PAPRH, Table X4, read-out: % activity, solo application
Protocol: as §1, §2, §3, §4, §5, §6, §7

[4] = system: Avena fatua; experiment: greenhouse post-emergence treatment, AVEFA; settings: Avena fatua, 480 h, 20 DAT, AVEFA, Table X4, read-out: % activity, solo application
Outline: (§8)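 Scoring used a 0 to 100 scale, with 100 denoting no emergence or full destruction of at least the above-ground parts, recorded within a 2 to 4 week test period. Test plants grew in loamy sand containing about 3.0% humus at 10-25° C. or 20-35° C., after direct sowing or transplanting, and received water-based treatments post-emergence.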

[5] = system: Matricaria chamomilla; experiment: greenhouse post-emergence treatment, MATCH; settings: Matricaria chamomilla, 480 h, 31.25 gai/ha (EC 235 g/l), 20 DAT, MATCH, Table X4, read-out: % activity, solo application
Outline: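 Post-emergence greenhouse spray on 3–15 cm plants, sown direct or transplanted a few days before treatment. Scored visually on a 0–100 scale after 2 to 4 weeks; expected additive effect computed by Colby: E=X+Y−(X·Y/100).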

[6] = system: Lolium multiflorum; experiment: greenhouse post-emergence treatment, LOLMU; settings: Lolium multiflorum, 480 h
Outline: as §8

[7] = system: Setaria viridis; experiment: greenhouse post-emergence treatment, SETVI; settings: Setaria viridis, 480 h, 20 DAT, SETVI, Table X4, read-out: % activity, solo application
Outline: as §8

[8] = system: Galium aparine; experiment: greenhouse post-emergence treatment, GALAP; settings: Galium aparine, 480 h
Protocol: as §1, §2, §3, §4, §5, §6, §7

[9] = system: Stellaria media; experiment: greenhouse post-emergence treatment, STEME; settings: Stellaria media, 480 h, read-out: % activity
Protocol: as §1, §2, §3, §4, §5, §6, §7

[10] = system: Digitaria sanguinalis; experiment: greenhouse post-emergence treatment, DIGSA; settings: Digitaria sanguinalis, 480 h
Outline: as §8

[11] = system: Bromus sterilis; experiment: greenhouse post-emergence treatment, BROST; settings: Bromus sterilis, 480 h, read-out: % activity
Outline: as §8

[12] = system: Brachiaria decumbens; experiment: greenhouse post-emergence treatment, BRADC; settings: Urochloa decumbens, 480 h, read-out: % activity
Protocol: as §1, §2, §3, §4, §5, §6, §7

[13] = system: Apera spica-venti; experiment: greenhouse post-emergence treatment, APESV; settings: APESV, bromoxynil solo 250 gai/ha, 20 DAT
Protocol: as §1, §2, §3, §4, §5, §6, §7

[14] = system: Polygonum aviculare; experiment: greenhouse post-emergence treatment, POLAV; settings: Polygonum aviculare, 480 h, 20 DAT, POLAV, Table X4, read-out: % activity, solo application
Protocol: as §1, §2, §3, §4, §5, §6, §7

`N#Cc1cc(Br)c(O)c(Br)c1` [Bromoxynil, bromoxynil] gave a pest or weed control at 31.25 g/ha [1] of 0%, a pest or weed control at 62.5 g/ha [1] of 0% and a pest or weed control at 125 g/ha [1] of 0%. For the same compound, the pest or weed control at 250 g/ha [1] was 0%, the pest or weed control at 31.25 g/ha [2] was 0% and the pest or weed control at 62.5 g/ha [2] was 0%. For the same compound, the pest or weed control at 125 g/ha [2] was 0%, the pest or weed control at 250 g/ha [2] was 10% and the inhibition at 31.25 g/ha [3] was 40%. The inhibition at 31.25 g/ha ([4]; 31.25 gai/ha (EC 235 g/l)) was 0%, the inhibition at 125 g/ha ([4]; 125 gai/ha (EC 235 g/l)) was 0% and the inhibition at 31.25 g/ha [5] was 55%. The inhibition at 31.25 g/ha ([6]; 31.25 gai/ha (EC 235 g/l), 20 DAT, LOLMU, Table X4, read-out: % activity, solo application) was 0%, the inhibition at 62.5 g/ha ([6]; 62.5 gai/ha (EC 235 g/l), 20 DAT, LOLMU, Table X4, read-out: % activity, solo application) was 0% and the inhibition at 125 g/ha ([6]; 125 gai/ha (EC 235 g/l), 20 DAT, LOLMU, Table X4, read-out: % activity, solo application) was 0%. For the same compound, the inhibition at 250 g/ha ([6]; 250 gai/ha (EC 235 g/l), 20 DAT, LOLMU, Table X4, read-out: % activity, solo application) was 0%, the pest or weed control at 31.25 g/ha ([6]; read-out: % activity) was 0% and the pest or weed control at 62.5 g/ha ([6]; read-out: % activity) was 0%. It also gave a pest or weed control at 125 g/ha ([6]; read-out: % activity) of 0%, a pest or weed control at 250 g/ha ([6]; read-out: % activity) of 0% and an inhibition at 31.25 g/ha ([7]; 31.25 gai/ha (EC 235 g/l)) of 0%. The inhibition at 250 g/ha ([7]; 250 gai/ha (EC 235 g/l)) was 0%, the inhibition at 62.5 g/ha ([8]; 62.5 gai/ha (EC 235 g/l), 20 DAT, GALAP, Table X4, read-out: % activity, solo application) was 65% and the inhibition at 125 g/ha ([8]; 125 gai/ha (EC 235 g/l), 20 DAT, GALAP, Table X4, read-out: % activity, solo application) was 80%. The pest or weed control at 31.25 g/ha ([8]; read-out: % activity) was 65%, the pest or weed control at 62.5 g/ha ([8]; read-out: % activity) was 65% and the pest or weed control at 125 g/ha ([8]; read-out: % activity) was 80%. It also gave a pest or weed control at 31.25 g/ha [9] of 30%, a pest or weed control at 62.5 g/ha [9] of 50% and a pest or weed control at 125 g/ha [9] of 60%. The inhibition at 31.25 g/ha ([10]; 31.25 gai/ha (EC 235 g/l), 20 DAT, DIGSA, Table X4, read-out: % activity, solo application) was 0%, the inhibition at 62.5 g/ha ([10]; 62.5 gai/ha (EC 235 g/l), 20 DAT, DIGSA, Table X4, read-out: % activity, solo application) was 0% and the inhibition at 125 g/ha ([10]; 125 gai/ha (EC 235 g/l), 20 DAT, DIGSA, Table X4, read-out: % activity, solo application) was 0%. It also gave an inhibition at 250 g/ha ([10]; 250 gai/ha (EC 235 g/l), 20 DAT, DIGSA, Table X4, read-out: % activity, solo application) of 0%, a pest or weed control at 31.25 g/ha ([10]; read-out: % activity) of 0% and a pest or weed control at 62.5 g/ha ([10]; read-out: % activity) of 0%. It also gave a pest or weed control at 125 g/ha ([10]; read-out: % activity) of 0%, a pest or weed control at 250 g/ha ([10]; read-out: % activity) of 0% and a pest or weed control at 31.25 g/ha [11] of 0%. The pest or weed control at 62.5 g/ha [11] was 0%, the pest or weed control at 125 g/ha [11] was 0% and the pest or weed control at 250 g/ha [11] was 0%. The pest or weed control at 31.25 g/ha [12] was 0%, the pest or weed control at 62.5 g/ha [12] was 0% and the pest or weed control at 125 g/ha [12] was 10%. The “% activity” value [13] was 0%, the inhibition at 31.25 g/ha ([14]; 31.25 gai/ha (EC 235 g/l)) was 65% and the inhibition at 62.5 g/ha ([14]; 62.5 gai/ha (EC 235 g/l)) was 65%. It also gave an inhibition at 125 g/ha ([14]; 125 gai/ha (EC 235 g/l)) of 65%.
